We go through 7 molecules from patent US8148380B2, “Antibacterial amide and sulfonamide substituted heterocyclic urea compounds” (priority 2007, dated 2012).

SMILES strings stand for the structures. ≈ marks a conversion by molar mass, not a printed value.

What all share (assay type): cell-based
For assay [1], the system named is S. aureus, E. faecalis, E. faecium, S. pyogenes, S. epidermidis and S. pneumoniae. The experiment in a line: Bactericidal activity. As for the experimental part: (§1) Compounds of the present invention were tested for antibacterial activity against a variety of pathogenic organisms including S. aureus, S. pneumoniae, S. pyogenes, E. faecalis, H. influenza and M. catarrhalis using a standard broth microdilution method to determine their minimum inhibitory concentrations (MICs). All compounds were tested using standard methods in accordance with CLSI guidelines (Clinical and Laboratory Standards Institute). Compounds described in Examples 1, 3-6, 8, 10-17, 19-21, 24-31, 33, 36, 38, 40, 54, 56-57, 59-71, 74-105, 107-108, 110-112, 114, 117-120, 122-142, 144-159, 162-179, 181-182, 184-225, 227-242, 244-319, 321-355, and 357-475 had MIC's of <0.12-4.0 μg/mL against some strains of the major Gram-positive organisms S. aureus, S. pneumoniae, S. pyogenes, and E. faecalis. […] Compounds described in Examples 11, 54, 60, and 208 shown to be bactericidal in S. aureus, E. faecalis, E. faecium, S. pyogenes, S. epidermidis and S. pneumoniae.

A short description of assay [2]: MIC against drug-resistant Gram-positive strains. The note with it: read-out: MIC in clinically relevant resistant strains. The procedure:
as §1
(§2) Compounds of the present invention were not compromised by existing resistance to all drug classes tested, including β-lactams, glycopeptides, oxazolidinones, macrolides, and fluoroquinolones. In particular, compounds described in Examples 11, 54, 60, and 208 were active against methicillin-(oxacillin-) resistant S. aureus (MRSA), vancomycin-intermediate S. aureus (VISA), linezolid-resistant S. aureus, methicillin-(oxacillin-) resistant and mupirocin resistant S. epidermidis, macrolide-resistant S. pyogenes, macrolide-, penicillin-, and levofloxacin-resistant S. pneumoniae, vancomycin-, macrolide-, and ciprofloxacin-resistant E. faecalis (VRE) and vancomycin-, macrolide-, and ciprofloxacin-resistant E. faecium.

Assay [3] relates to MRSA, VISA, linezolid-resistant S. aureus, resistant S. epidermidis, S. pyogenes, S. pneumoniae, E. faecalis (VRE) and E. faecium. The experiment in a line: MIC against drug-resistant Gram-positive strains. The note with it: MRSA, VISA, linezolid-resistant S. aureus, resistant S. epidermidis, S. pyogenes, S. pneumoniae, E. faecalis (VRE), E. faecium. As for the experimental part: as §1, §2

Assay [4] is described as follows: MIC90 against resistant Gram-positive bacteria. As for the experimental part: as §1

As usually defined, the MIC is the lowest concentration found to suppress growth. As for `Cc1noc(C)c1C(=O)N(C)Cc1csc(NC(=O)NCc2ccc(Cl)c(Cl)c2)n1` [Example 11, N-((2-(3-(3,4-dichlorobenzyl)ureido)thiazol-4-yl)methyl)-N,3,5-trimethylisoxazole-4-carboxamide], the bactericidal result in assay [1] was “bactericidal”. For the same molecule, the minimum inhibitory concentration (MIC) in assay [2] was 0.25 to 4 µg/mL (≈ 0.534 to 8.54 µM). Moreover, the “activity against drug-resistant strains” value in assay [3] is recorded as “active”.
A word on the MIC90: it is an inhibitory concentration at the 90% level, which refers to growth in some studies and to a panel of isolates in others. The low end stands for higher susceptibility, the high end for lower susceptibility. `Cc1noc(C)c1C(=O)N(C)Cc1csc(NC(=O)NCc2cccc(F)c2)n1` [Example 54, N-((2-(3-(3-fluorobenzyl)ureido)thiazol-4-yl)methyl)-N,3,5-trimethylisoxazole-4-carboxamide]: the bactericidal entry in assay [1] was “bactericidal”. The molecule also came in with an MIC90 in assay [4] of 1 to 4 µg/mL (≈ 2.4 to 9.58 µM). In assay [2], the MIC lay within 0.25 to 4 µg/mL (≈ 0.599 to 9.58 µM). Moreover, in assay [3], the “activity against drug-resistant strains” value is on record as “active”.
With `CCc1noc(C)c1C(=O)N(C)Cc1csc(NC(=O)NCc2cccc(F)c2)n1` [Example 60, 3-ethyl-N-((2-(3-(3-fluorobenzyl)ureido)thiazol-4-yl)methyl)-N,5-dimethylisoxazole-4-carboxamide], the bactericidal result in assay [1] is “bactericidal”. Besides, in assay [4], the MIC90 was in the range of 1 to 4 µg/mL (≈ 2.32 to 9.27 µM). Further, the MIC in assay [2] was 0.25 to 4 µg/mL (≈ 0.579 to 9.27 µM). Also, in assay [3], the “activity against drug-resistant strains” value is listed as “active”.
Take `Cc1ncnc(C)c1C(=O)N(C)Cc1csc(NC(=O)NCc2cccc(F)c2)n1` [Example 96, N-((2-(3-(3-fluorobenzyl)ureido)thiazol-4-yl)methyl)-N,4,6-trimethylpyrimidine-5-carboxamide]: the MIC90 in assay [4] lay within 1 to 4 µg/mL (≈ 2.33 to 9.34 µM).
Molecule `Cc1noc(C)c1C(=O)N(C)Cc1csc(NC(=O)NCc2ccc(Cl)s2)n1` [Example 107, N-((2-(3-((5-chlorothiophen-2-yl)methyl)ureido)thiazol-4-yl)methyl)-N,3,5-trimethylisoxazole-4-carboxamide] showed an MIC90 in assay [4] of 1 to 4 µg/mL (≈ 2.27 to 9.09 µM).
For `CN(Cc1csc(NC(=O)NCc2cccc(F)c2)n1)C(=O)c1cc(O)nnc1Cl` [Example 208, 3-Chloro-6-hydroxy-pyridazine-4-carboxylic acid {2-[3-(3-fluoro-benzyl)-ureido]-thiazol-4-ylmethyl}-methyl-amide], the bactericidal result in assay [1] is reported as “bactericidal”. Moreover, the MIC90 in assay [4] lay within 1 to 4 µg/mL (≈ 2.22 to 8.87 µM). In addition, the MIC in assay [2] lay within 0.25 to 4 µg/mL (≈ 0.554 to 8.87 µM). Also, the “activity against drug-resistant strains” value in assay [3] is “active”.
`Cc1noc(C)c1C(=O)N(C)C(C#N)c1csc(NC(=O)NCc2cccc(F)c2)n1` (stereo not drawn) [Example 214, 3,5-Dimethyl-isoxazole-4-carboxylic acid (cyano-{2-[3-(3-fluoro-benzyl)-ureido]-thiazol-4-yl}-methyl)-methyl-amide]: the MIC90 in assay [4] lay within 1 to 4 µg/mL (≈ 2.26 to 9.04 µM).
